From patent US20210128536A1, “WEAKLY BASIC DRUG AND IONIC POLYMER PHARMACEUTICAL FORMULATIONS AND METHODS OF FORMATION AND ADMINISTRATION THEREOF” (DISPERSOL TECHNOLOGIES, LLC, priority 2019, published 2021)

Experiment: Thermal stability by thermogravimetric analysis (TGA)
Assay type: physicochemical
Conditions: at relevant processing temperatures (<250° C.)
Procedure: Prior to thermokinetic processing, thermal stability of BI 667 was assessed using thermogravimetric analysis (TGA). BI 667 was considered stable (<1% mass loss on TGA) at relevant processing temperatures (<250° C.). […] (data not shown). […] Thus, a max processing temperature (and therefore ejection set point temperature) of the mixture was set at 160° C. TGA was performed on a TGA/DSC 1 (Mettler Toledo, Schwerzenbach, Switzerland). The temperature ramp utilized in this study was performed from 25 to 300° C. at a rate of 5° C./min with a nitrogen purge of 50 mL/min. Data were analyzed using STARE System.

With `CS(=O)(=O)c1cc(C2(NC(=O)c3cncc4c3cnn4-c3ccc(F)cc3)CC2)ccn1` [BI 667] the “mass loss on TGA” value was < 1%.
